In ChEMBL document CHEMBL1159334, “Agastinol and agastenol, novel lignans from Agastache rugosa and their evaluation in an apoptosis inhibition assay” (J Nat Prod, 2002):
≈ marks a conversion by molar mass, not a printed value.

System: U-937
Assay: Inhibition of etoposide-induced caspase 3 induction in human U937 cells after 7 hrs
Assay type: functional, cell-based
Details: U-937, 7 h

Structure (SMILES)	IC50
COc1cc(/C=C2/CO[C@@H](c3ccc(O)c(OC)c3)[C@@H]2COC(=O)c2ccc(O)cc2)ccc1O [AGASTENOL]	11.4 µg/mL (≈ 23.8 µM)
COc1cc(C[C@@H]2CO[C@@H](c3ccc(O)c(OC)c3)[C@@H]2COC(=O)c2ccc(O)cc2)ccc1O [AGASTINOL]	15.2 µg/mL (≈ 31.6 µM)
